From PMC9492542, “Brain-restricted mTOR inhibition with binary pharmacology” (Nature, 2022)
“And” between values parts separate entries of the source, which are not always exact repeats. Equal entries are not always repeated. Where two headings read alike, the source gives them in different places.

What was measured:
[1] = target: T1, FKBP12 (Homo sapiens, UniProt P62942); assay: Competition fluorescence polarization assay with FITC-rapamycin tracer; assay type: binding
T1 construct: His-tag (HRV 3C cleavable) (cleaved yes); made in house; host or cells: Escherichia coli BL21(DE3)
Protocol: Compound binding affinity was determined using a competition fluorescence polarization assay. […] The assay buffer was 20 mM HEPES pH 7.5 and 0.01% Triton X-100. […] Data were fitted to a three-parameter sigmoidal curve to derive IC50 values. Ki of the compounds were calculated using a tool provided by S. Wang’s laboratory (http://www.umich.edu/~shaomengwanglab/software/calc_ki/index.html). Data were plotted in GraphPad Prism 9.0.

[2] = target: T2, LRRK2 (Homo sapiens, UniProt Q5S007); assay: In vitro LRRK2 kinase inhibition assay (SelectScreen Adapta), with or without 10 µM FKBP12; assay type: biochemical
T2 construct: purchased SelectScreen Services (Thermo Fisher Scientific)
Protocol: In vitro kinase inhibition assays were performed by SelectScreen Services (Thermo Fisher Scientific) using either Z’-LYTE (mTOR, Src, Csk, EGFR, HER2 and HGK), Adapta (LRRK2) or LanthaScreen (DDR2) assay format (standardized protocols can be accessed on the SelectScreen website: https://www.thermofisher.com/us/en/home/products-and-services/services/custom-services/screening-and-profiling-services/selectscreen-profiling-service/selectscreen-kinase-profiling-service.html. When indicated, recombinant FKBP12 protein was added to the assay mixture to a final concentration of 10 µM.

[3] = target: LRRK2 (Mus musculus, UniProt Q5S006); assay: Phospho-LRRK2 (S935) quantification by TR-FRET in RAW264.7 cells; details: for P-LRRK2(S935) in RAW264.7 cells: replicate raw data
Protocol: Phospho-LRRK2 (S935) was quantified in drug-treated cells using a Phospho-LRRK2 (Ser935) cellular kit (Cisbio) following the manufacturer’s instructions. […] Cells were treated with compounds at the indicated concentrations for 2 h. Medium was removed by aspiration and the cells were rinsed with ice-cold PBS (1 ml). Cells were lysed with 100 µl Cisbio 1X lysis buffer at 23 °C directly in plate for 30 min. […] Clarified lysate (16 µl) was dispensed into one well of a low-volume, round-bottom 384-well plate, and 4 µl LRRK2–phospho-LRRK2 (S935) antibody master mix (Cisbio) was added to each well. The plate was incubated at 23 °C for 4 h.
The TR-FRET signal was calculated as the ratio fluorescence intensity [read B]/[read A].

[4] = read-out: residual kinase activity (LRRK2), 0.495 nM drug, + 10 µM FKBP12
[5] = read-out: residual kinase activity (LRRK2), 0.495 nM drug, no FKBP12
[6] = read-out: residual kinase activity (LRRK2), 1.52 nM drug, + 10 µM FKBP12
[7] = read-out: residual kinase activity (LRRK2), 1.52 nM drug, no FKBP12
[8] = read-out: residual kinase activity (LRRK2), 4.57 nM drug, + 10 µM FKBP12
[9] = read-out: residual kinase activity (LRRK2), 4.57 nM drug, no FKBP12
[10] = read-out: residual kinase activity (LRRK2), 13.7 nM drug, + 10 µM FKBP12
[11] = read-out: residual kinase activity (LRRK2), 13.7 nM drug, no FKBP12
[12] = read-out: residual kinase activity (LRRK2), 41.2 nM drug, + 10 µM FKBP12
[13] = read-out: residual kinase activity (LRRK2), 41.2 nM drug, no FKBP12
[14] = read-out: residual kinase activity (LRRK2), 123 nM drug, + 10 µM FKBP12
[15] = read-out: residual kinase activity (LRRK2), 123 nM drug, no FKBP12
[16] = read-out: residual kinase activity (LRRK2), 370 nM drug, + 10 µM FKBP12
[17] = read-out: residual kinase activity (LRRK2), 370 nM drug, no FKBP12
[18] = read-out: residual kinase activity (LRRK2), 1110 nM drug, + 10 µM FKBP12
[19] = read-out: residual kinase activity (LRRK2), 1110 nM drug, no FKBP12
[20] = read-out: residual kinase activity (LRRK2), 3330 nM drug, + 10 µM FKBP12
[21] = read-out: residual kinase activity (LRRK2), 3330 nM drug, no FKBP12
[22] = read-out: residual kinase activity (LRRK2), 10000 nM drug, + 10 µM FKBP12
[23] = read-out: residual kinase activity (LRRK2), 10000 nM drug, no FKBP12
[24] = 100 nM compound, +1 µM RapaBlock

T2 sequence (Q5S007 whole entry): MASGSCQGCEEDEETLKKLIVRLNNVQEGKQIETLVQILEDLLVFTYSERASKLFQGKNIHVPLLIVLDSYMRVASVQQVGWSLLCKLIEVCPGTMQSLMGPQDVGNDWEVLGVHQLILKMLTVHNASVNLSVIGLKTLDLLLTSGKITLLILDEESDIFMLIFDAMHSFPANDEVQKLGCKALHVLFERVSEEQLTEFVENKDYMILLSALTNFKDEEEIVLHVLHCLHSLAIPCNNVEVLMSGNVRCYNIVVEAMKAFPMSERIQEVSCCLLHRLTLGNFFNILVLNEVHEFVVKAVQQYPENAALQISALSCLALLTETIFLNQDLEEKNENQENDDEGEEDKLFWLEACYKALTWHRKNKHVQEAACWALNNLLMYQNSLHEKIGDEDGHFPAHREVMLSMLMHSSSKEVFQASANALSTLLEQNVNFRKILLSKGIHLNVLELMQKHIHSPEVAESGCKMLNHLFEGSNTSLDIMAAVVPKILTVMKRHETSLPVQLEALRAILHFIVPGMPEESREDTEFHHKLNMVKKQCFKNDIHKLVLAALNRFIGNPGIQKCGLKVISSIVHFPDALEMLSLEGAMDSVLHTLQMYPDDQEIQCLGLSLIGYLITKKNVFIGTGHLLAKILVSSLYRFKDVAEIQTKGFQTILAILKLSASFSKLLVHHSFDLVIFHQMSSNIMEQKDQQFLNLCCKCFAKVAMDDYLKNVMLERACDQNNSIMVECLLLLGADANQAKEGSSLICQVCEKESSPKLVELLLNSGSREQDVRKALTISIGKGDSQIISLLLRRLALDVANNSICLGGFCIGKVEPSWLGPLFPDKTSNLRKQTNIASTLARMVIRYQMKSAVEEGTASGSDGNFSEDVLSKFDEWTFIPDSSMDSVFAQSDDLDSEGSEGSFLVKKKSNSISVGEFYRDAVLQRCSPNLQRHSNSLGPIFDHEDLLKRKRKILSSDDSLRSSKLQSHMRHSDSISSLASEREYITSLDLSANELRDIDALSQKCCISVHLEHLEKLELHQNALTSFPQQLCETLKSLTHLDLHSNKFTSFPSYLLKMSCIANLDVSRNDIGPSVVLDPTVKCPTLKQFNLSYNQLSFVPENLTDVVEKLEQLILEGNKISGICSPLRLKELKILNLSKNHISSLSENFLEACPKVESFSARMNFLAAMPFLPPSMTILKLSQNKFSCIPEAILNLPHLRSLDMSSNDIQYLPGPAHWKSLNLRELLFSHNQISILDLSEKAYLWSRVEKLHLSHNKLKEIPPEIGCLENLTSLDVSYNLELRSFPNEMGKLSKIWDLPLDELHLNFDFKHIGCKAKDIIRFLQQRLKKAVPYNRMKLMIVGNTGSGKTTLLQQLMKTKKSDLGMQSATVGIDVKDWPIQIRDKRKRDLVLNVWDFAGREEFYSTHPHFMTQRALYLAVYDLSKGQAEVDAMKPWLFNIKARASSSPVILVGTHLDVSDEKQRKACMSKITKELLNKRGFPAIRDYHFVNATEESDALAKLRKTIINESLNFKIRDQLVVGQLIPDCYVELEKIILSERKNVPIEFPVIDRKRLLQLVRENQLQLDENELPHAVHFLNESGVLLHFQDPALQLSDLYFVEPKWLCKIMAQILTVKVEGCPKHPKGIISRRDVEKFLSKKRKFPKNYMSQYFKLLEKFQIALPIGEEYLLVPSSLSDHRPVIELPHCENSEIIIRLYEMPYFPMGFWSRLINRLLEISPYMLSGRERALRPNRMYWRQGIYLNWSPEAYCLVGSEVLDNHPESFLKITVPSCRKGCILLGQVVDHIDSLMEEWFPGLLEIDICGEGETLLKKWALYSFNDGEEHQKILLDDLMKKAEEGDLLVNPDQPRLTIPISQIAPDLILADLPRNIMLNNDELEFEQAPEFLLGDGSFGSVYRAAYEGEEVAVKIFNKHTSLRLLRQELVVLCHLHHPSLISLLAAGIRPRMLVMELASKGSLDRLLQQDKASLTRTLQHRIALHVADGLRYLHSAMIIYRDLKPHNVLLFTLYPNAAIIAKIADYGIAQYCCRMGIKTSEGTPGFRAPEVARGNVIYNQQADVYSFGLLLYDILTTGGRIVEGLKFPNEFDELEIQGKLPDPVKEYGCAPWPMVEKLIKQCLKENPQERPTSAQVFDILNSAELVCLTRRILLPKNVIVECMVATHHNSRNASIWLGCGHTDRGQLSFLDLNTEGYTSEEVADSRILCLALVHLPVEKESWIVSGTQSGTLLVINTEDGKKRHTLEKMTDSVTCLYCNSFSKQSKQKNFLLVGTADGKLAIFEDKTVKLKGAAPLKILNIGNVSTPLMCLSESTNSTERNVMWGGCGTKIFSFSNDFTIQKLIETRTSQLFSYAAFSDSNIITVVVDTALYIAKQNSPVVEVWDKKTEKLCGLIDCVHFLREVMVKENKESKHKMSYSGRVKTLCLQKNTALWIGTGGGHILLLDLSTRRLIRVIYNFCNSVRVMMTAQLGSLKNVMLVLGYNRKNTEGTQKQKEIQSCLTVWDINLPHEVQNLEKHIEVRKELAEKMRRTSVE
Chain of LRRK2 (Mus musculus, UniProt Q5S006) (Q5S006 whole entry): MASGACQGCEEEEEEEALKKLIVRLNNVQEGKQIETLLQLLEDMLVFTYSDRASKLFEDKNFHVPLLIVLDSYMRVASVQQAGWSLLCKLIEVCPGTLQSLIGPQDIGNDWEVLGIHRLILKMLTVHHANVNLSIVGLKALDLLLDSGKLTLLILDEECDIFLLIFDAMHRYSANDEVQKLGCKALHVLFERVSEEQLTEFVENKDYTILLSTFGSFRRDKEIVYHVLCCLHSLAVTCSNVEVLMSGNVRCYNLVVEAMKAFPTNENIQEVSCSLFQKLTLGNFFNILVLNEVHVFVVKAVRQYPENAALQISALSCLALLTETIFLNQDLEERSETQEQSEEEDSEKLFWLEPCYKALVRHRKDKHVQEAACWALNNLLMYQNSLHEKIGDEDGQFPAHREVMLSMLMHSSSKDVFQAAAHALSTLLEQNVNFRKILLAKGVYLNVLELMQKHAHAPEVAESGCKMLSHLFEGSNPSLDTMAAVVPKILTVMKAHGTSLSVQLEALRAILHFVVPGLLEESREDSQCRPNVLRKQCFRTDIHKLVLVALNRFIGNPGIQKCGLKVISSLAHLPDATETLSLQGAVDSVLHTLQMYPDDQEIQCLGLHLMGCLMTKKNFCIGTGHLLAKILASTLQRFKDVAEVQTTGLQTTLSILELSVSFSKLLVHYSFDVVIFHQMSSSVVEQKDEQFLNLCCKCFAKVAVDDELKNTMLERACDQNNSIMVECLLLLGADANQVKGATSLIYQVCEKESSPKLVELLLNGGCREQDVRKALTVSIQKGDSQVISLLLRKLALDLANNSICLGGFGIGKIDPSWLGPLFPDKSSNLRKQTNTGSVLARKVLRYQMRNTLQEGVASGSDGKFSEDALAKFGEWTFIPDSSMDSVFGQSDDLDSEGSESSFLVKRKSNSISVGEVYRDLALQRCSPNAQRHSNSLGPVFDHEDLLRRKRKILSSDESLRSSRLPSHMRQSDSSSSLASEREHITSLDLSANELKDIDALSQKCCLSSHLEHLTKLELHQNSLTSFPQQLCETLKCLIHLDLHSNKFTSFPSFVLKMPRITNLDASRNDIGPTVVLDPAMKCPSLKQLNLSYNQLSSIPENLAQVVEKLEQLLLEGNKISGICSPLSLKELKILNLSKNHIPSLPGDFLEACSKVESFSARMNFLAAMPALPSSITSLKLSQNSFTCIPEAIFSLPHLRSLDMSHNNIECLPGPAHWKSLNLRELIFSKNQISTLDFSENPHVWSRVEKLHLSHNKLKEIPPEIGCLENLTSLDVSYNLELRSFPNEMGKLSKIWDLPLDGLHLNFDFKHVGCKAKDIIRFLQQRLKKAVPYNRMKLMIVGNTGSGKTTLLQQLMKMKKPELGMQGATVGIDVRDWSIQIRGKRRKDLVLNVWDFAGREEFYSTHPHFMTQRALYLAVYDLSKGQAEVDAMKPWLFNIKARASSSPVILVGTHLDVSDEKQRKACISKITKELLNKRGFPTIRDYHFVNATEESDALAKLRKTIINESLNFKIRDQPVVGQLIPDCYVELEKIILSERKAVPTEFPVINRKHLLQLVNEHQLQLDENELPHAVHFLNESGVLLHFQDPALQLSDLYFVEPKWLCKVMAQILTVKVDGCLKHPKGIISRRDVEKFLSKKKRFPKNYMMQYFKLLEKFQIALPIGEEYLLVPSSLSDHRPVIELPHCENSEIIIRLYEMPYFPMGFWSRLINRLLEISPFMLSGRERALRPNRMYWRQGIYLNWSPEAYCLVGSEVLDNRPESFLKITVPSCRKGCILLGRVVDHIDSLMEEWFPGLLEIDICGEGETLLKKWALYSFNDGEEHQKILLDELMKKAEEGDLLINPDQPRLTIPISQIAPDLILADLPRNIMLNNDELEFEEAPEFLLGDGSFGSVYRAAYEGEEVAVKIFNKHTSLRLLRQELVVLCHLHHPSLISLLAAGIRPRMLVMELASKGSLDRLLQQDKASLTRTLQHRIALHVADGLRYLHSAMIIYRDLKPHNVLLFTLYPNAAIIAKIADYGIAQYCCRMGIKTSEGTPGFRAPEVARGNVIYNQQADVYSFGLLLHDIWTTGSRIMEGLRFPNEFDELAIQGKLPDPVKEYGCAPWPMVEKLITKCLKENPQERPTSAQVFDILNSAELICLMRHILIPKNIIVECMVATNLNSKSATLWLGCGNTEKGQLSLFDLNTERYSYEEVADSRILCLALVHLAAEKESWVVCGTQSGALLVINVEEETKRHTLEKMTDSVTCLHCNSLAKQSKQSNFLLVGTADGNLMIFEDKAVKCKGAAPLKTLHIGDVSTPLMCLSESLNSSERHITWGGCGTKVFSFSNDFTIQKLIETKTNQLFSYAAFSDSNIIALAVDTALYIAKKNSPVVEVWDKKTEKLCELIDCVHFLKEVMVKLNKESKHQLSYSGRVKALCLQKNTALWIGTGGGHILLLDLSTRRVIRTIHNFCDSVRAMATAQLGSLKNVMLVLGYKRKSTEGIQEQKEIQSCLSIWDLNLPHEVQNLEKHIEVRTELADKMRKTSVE
T1 sequence (P62942 whole entry): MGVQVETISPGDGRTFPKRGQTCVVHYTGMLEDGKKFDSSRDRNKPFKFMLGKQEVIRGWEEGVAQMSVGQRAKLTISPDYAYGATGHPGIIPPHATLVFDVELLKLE

CO[C@H]1C[C@@H](C)C/C(C)=C/[C@@H](CCCc2ccncc2)C(=O)C[C@H](O)[C@@H](C)[C@@H](/C(C)=C/[C@@H]2CC[C@@H](O)[C@H](OC)C2)OC(=O)[C@@H]2CCCCN2C(=O)C(=O)[C@]2(O)O[C@H]1[C@@H](OC)C[C@H]2C [Compound 05-085]
Kd [1]: 1.5 nM

CO[C@H]1C[C@@H](C)C/C(C)=C/[C@@H](CCCc2cc[n+]([O-])cc2)C(=O)C[C@H](O)[C@@H](C)[C@@H](/C(C)=C/[C@@H]2CC[C@@H](O)[C@H](OC)C2)OC(=O)[C@@H]2CCCCN2C(=O)C(=O)[C@]2(O)O[C@H]1[C@@H](OC)C[C@H]2C [Compound 05-092]
Kd ([1]; recombinant FKBP12, Extended Data Fig. 2, read-out: Kd (FKBP12)): 2.5 nM

CCNc1nc(Nc2cc(F)c(C(=O)N3CCN(C(=O)CCC[C@@H]4/C=C(\C)C[C@H](C)C[C@H](OC)[C@H]5O[C@@](O)(C(=O)C(=O)N6CCCC[C@H]6C(=O)O[C@H](/C(C)=C/[C@@H]6CC[C@@H](O)[C@H](OC)C6)[C@H](C)[C@@H](O)CC4=O)[C@H](C)C[C@@H]5OC)CC3)cc2OC)ncc1C(F)(F)F [FK-GNE7915]
residual kinase activity (LRRK2) ([2]; 0.495 nM drug, + 10 µM FKBP12): 87 | residual kinase activity (LRRK2) ([2]; 0.495 nM drug, no FKBP12): 95 | residual kinase activity (LRRK2) ([2]; 1.52 nM drug, + 10 µM FKBP12): 87 | residual kinase activity (LRRK2) ([2]; 1.52 nM drug, no FKBP12): 95 | residual kinase activity (LRRK2) ([2]; 4.57 nM drug, + 10 µM FKBP12): 65 | residual kinase activity (LRRK2) ([2]; 4.57 nM drug, no FKBP12): 107 | residual kinase activity (LRRK2) ([2]; 13.7 nM drug, no FKBP12): 90 | residual kinase activity (LRRK2) ([2]; 41.2 nM drug, + 10 µM FKBP12): 41 | residual kinase activity (LRRK2) ([2]; 41.2 nM drug, no FKBP12): 70 | residual kinase activity (LRRK2) ([2]; 123 nM drug, + 10 µM FKBP12): 31 | residual kinase activity (LRRK2) ([2]; 123 nM drug, no FKBP12): 47 | residual kinase activity (LRRK2) ([2]; 370 nM drug, no FKBP12): 25 | residual kinase activity (LRRK2) ([2]; 1110 nM drug, + 10 µM FKBP12): 7 | residual kinase activity (LRRK2) ([2]; 1110 nM drug, no FKBP12): 9 | residual kinase activity (LRRK2) ([2]; 3330 nM drug, no FKBP12): 4 | residual kinase activity (LRRK2) ([2]; 10000 nM drug, + 10 µM FKBP12): 5 | residual kinase activity (LRRK2) ([2]; 10000 nM drug, no FKBP12): 3 | remaining activity at 0.000495 µM [2, 4]: 91% | remaining activity at 0.000495 µM [2, 5]: 101% | remaining activity at 0.00152 µM [2, 6]: 91% | remaining activity at 0.00152 µM [2, 7]: 106% | remaining activity at 0.00457 µM [2, 8]: 78% | remaining activity at 0.00457 µM [2, 9]: 94% | remaining activity at 0.0137 µM [2, 10]: 57% | remaining activity at 0.0137 µM [2, 11]: 89% | remaining activity at 0.0412 µM [2, 12]: 38% | remaining activity at 0.0412 µM [2, 13]: 66% | remaining activity at 0.123 µM [2, 14]: 24% | remaining activity at 0.123 µM [2, 15]: 54% | remaining activity at […] [2, 16]: 14% | remaining activity at […] [2, 17]: 29% | remaining activity at 1.11 µM [2, 18]: 8% | remaining activity at 1.11 µM [2, 19]: 10% | remaining activity at 3.33 µM [2, 20]: 5% | remaining activity at 3.33 µM [2, 21]: 5% | remaining activity at 10 µM [2, 22]: 6% | remaining activity at 10 µM [2, 23]: 5% | IC50 ([2]; with 10 µM FKBP12): 21 nM | IC50 ([2]; without added FKBP12): 107 nM | IC50 [3]: 6.7 nM | level of phospho-LRRK2 (S935), % of the basal level ([3]; 100 nM FK-GNE7915): 15% | effect on LRRK2 activity ([3]; 100 nM FK-GNE7915 + 1 µM RapaBlock): had no effect on LRRK2 activity | P-LRRK2(S935) in RAW264.7 cells [3, 24]: 99.2 and 97.5 and 90.7 | P-LRRK2(S935) in RAW264.7 cells ([3]; 100 nM compound, No RapaBlock): 16.7 and 15.6 and 13.4 | P-LRRK2(S935) in RAW264.7 cells ([3]; Conc 0.457247 nM, 0 nM = 100): 84.5 and 90.2 and 94.3 | P-LRRK2(S935) in RAW264.7 cells ([3]; Conc 1.37174 nM, 0 nM = 100): 79.4 and 82.9 and 87.4 | P-LRRK2(S935) in RAW264.7 cells ([3]; Conc 4.11523 nM, 0 nM = 100): 67.8 and 77.9 and 73.6 | P-LRRK2(S935) in RAW264.7 cells ([3]; Conc 12.3457 nM, 0 nM = 100): 32.2 and 34.9 (2×) | P-LRRK2(S935) in RAW264.7 cells ([3]; Conc 37.037 nM, 0 nM = 100): 13.7 and 14.5 and 16.2 | P-LRRK2(S935) in RAW264.7 cells ([3]; Conc 111.111 nM, 0 nM = 100): 11.4 (2×) and 13.1 | P-LRRK2(S935) in RAW264.7 cells ([3]; Conc 333.333 nM, 0 nM = 100): 13.1 and 12.6 and 11.8 | P-LRRK2(S935) in RAW264.7 cells ([3]; Conc 1000 nM, 0 nM = 100): 14 and 15.7 and 13.3

CCNc1nc(Nc2cc(F)c(C(=O)N3CCOCC3)cc2OC)ncc1C(F)(F)F [GNE7915]
residual kinase activity (LRRK2) ([2]; 0.495 nM drug, no FKBP12): 96 | residual kinase activity (LRRK2) ([2]; 1.52 nM drug, + 10 µM FKBP12): 66 | residual kinase activity (LRRK2) ([2]; 1.52 nM drug, no FKBP12): 75 | residual kinase activity (LRRK2) ([2]; 4.57 nM drug, + 10 µM FKBP12): 39 | residual kinase activity (LRRK2) ([2]; 4.57 nM drug, no FKBP12): 41 | residual kinase activity (LRRK2) ([2]; 13.7 nM drug, + 10 µM FKBP12): 15 | residual kinase activity (LRRK2) ([2]; 13.7 nM drug, no FKBP12): 16 | residual kinase activity (LRRK2) ([2]; 41.2 nM drug, + 10 µM FKBP12): 9 | residual kinase activity (LRRK2) ([2]; 41.2 nM drug, no FKBP12): 10 | residual kinase activity (LRRK2) ([2]; 123 nM drug, + 10 µM FKBP12): 6 | residual kinase activity (LRRK2) ([2]; 123 nM drug, no FKBP12): 3 | residual kinase activity (LRRK2) ([2]; 370 nM drug, + 10 µM FKBP12): 5 | residual kinase activity (LRRK2) ([2]; 370 nM drug, no FKBP12): 3 | residual kinase activity (LRRK2) ([2]; 1110 nM drug, no FKBP12): 3 | residual kinase activity (LRRK2) ([2]; 10000 nM drug, + 10 µM FKBP12): 3 | remaining activity at 0.000495 µM [2, 4]: 84% | remaining activity at 0.000495 µM [2, 5]: 78% | remaining activity at 0.00152 µM [2, 6]: 68% | remaining activity at 0.00152 µM [2, 7]: 68% | remaining activity at 0.00457 µM [2, 8]: 38% | remaining activity at 0.00457 µM [2, 9]: 39% | remaining activity at 0.0137 µM [2, 10]: 17% | remaining activity at 0.0137 µM [2, 11]: 18% | remaining activity at 0.0412 µM [2, 12]: 8% | remaining activity at 0.0412 µM [2, 13]: 6% | remaining activity at 0.123 µM [2, 14]: 5% | remaining activity at 0.123 µM [2, 15]: 4% | remaining activity at […] [2, 16]: 4% | remaining activity at […] [2, 17]: 5% | remaining activity at 1.11 µM [2, 18]: 5% | remaining activity at 1.11 µM [2, 19]: 4% | remaining activity at 3.33 µM [2, 20]: 5% | remaining activity at 3.33 µM [2, 21]: 3% | remaining activity at 10 µM [2, 22]: 5% | remaining activity at 10 µM [2, 23]: 3% | IC50 ([2]; without added FKBP12): 3 nM | IC50 [3]: 81 nM | P-LRRK2(S935) in RAW264.7 cells [3, 24]: 61.9 and 64.8 and 53.2 | P-LRRK2(S935) in RAW264.7 cells ([3]; 100 nM compound, No RapaBlock): 56 and 55.7 and 48.1

CCNc1nc(Nc2cc(F)c(C(=O)N3CCOCC3)cc2OC)ncc1C(F)(F)F [GNE-7915]
P-LRRK2(S935) in RAW264.7 cells ([3]; Conc 0.457247 nM, 0 nM = 100): 93.9 and 94 and 94.8 | P-LRRK2(S935) in RAW264.7 cells ([3]; Conc 1.37174 nM, 0 nM = 100): 113.4 and 112.1 and 104.8 | P-LRRK2(S935) in RAW264.7 cells ([3]; Conc 4.11523 nM, 0 nM = 100): 116.1 and 116.6 and 114.3 | P-LRRK2(S935) in RAW264.7 cells ([3]; Conc 12.3457 nM, 0 nM = 100): 104.6 and 91.1 and 91.3 | P-LRRK2(S935) in RAW264.7 cells ([3]; Conc 37.037 nM, 0 nM = 100): 75.2 and 70.5 and 70.4 | P-LRRK2(S935) in RAW264.7 cells ([3]; Conc 111.111 nM, 0 nM = 100): 43.3 and 40.8 and 41 | P-LRRK2(S935) in RAW264.7 cells ([3]; Conc 333.333 nM, 0 nM = 100): 26.6 and 22.6 and 23.5 | P-LRRK2(S935) in RAW264.7 cells ([3]; Conc 1000 nM, 0 nM = 100): 17.7 and 14.2 and 15.7
